Experimental data from ChEMBL document CHEMBL1201862, “PubChem BioAssay data set” (2004).
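Dose response: 5 concentrations. Exposure: 48 h. Format: 96-well plates. Endpoint: linear interpolation; highest concentration if not reached. GI50: concentration for 50% inhibition of growth.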 Active and inactive are the calls of the source. Rule as the data show it: active = GI50 up to about 1.1 µM and inactive = higher.

Columns and labels:
Test in all cases: NCI tumour cell line growth inhibition, 48 h
[1] = system: 786-0
[2] = system: DU-145
[3] = system: CAKI-1
[4] = system: NCI-H460
[5] = system: Hs-578T
[6] = system: UACC-257
[7] = system: SW-620
[8] = system: SNB-19
[9] = system: OVCAR-3
[10] = system: K562
[11] = system: NCI-H522
[12] = system: M14
[13] = system: A498
[14] = system: RPMI-8226
[15] = system: A549
[16] = system: SNB-75
[17] = system: UACC-62
[18] = system: HOP-62
[19] = system: U-251
[20] = system: IGROV-1

Row | Structure (SMILES) | GI50 [1] | GI50 [2] | GI50 [3] | GI50 [4] | GI50 [5] | GI50 [6] | GI50 [7] | GI50 [8] | GI50 [9] | GI50 [10] | GI50 [11] | GI50 [12] | GI50 [13] | GI50 [14] | GI50 [15] | GI50 [16] | GI50 [17] | GI50 [18] | GI50 [19] | GI50 [20]
1 | CCOC(=O)n1c(=O)nc2c3c(ncn21)Oc1c(c(-c2ccccc2)nn1-c1ccccc1)C3c1ccc(Cl)cc1 (stereo not drawn) | 1520 nM (inactive) | 1710 nM (inactive) | 1610 nM (inactive) | 1680 nM (inactive) | 1660 nM (inactive) | 1800 nM (inactive) | 1710 nM (inactive) | 1610 nM (inactive) | 1480 nM (inactive) | 1080 nM (active) | 1730 nM (inactive) | 1920 nM (inactive) | 1790 nM (inactive) | 1460 nM (inactive) | 1650 nM (inactive) | 1910 nM (inactive) | 1700 nM (inactive) | 1770 nM (inactive) | 1690 nM (inactive) | 
2 | Cc1ccc(NC(=O)c2cccc(OP(=O)(O)Nc3ccc(C)cc3)c2)cc1 | > 100000 nM (inactive) | > 100000 nM (inactive) | > 100000 nM (inactive) | > 100000 nM (inactive) | > 100000 nM (inactive) | > 100000 nM (inactive) | > 100000 nM (inactive) | > 100000 nM (inactive) | > 100000 nM (inactive) | > 100000 nM (inactive) | 18700 nM (inactive) | 33300 nM (inactive) | > 100000 nM (inactive) | > 100000 nM (inactive) | 71800 nM (inactive) | 20200 nM (inactive) | > 100000 nM (inactive) | > 100000 nM (inactive) | > 100000 nM (inactive) | > 100000 nM (inactive)
3 | Nc1nc(SCc2ccccn2)c2ncn(C3CCCC3)c2n1 | > 100000 nM (inactive) | > 100000 nM (inactive) | > 100000 nM (inactive) | > 100000 nM (inactive) | 25900 nM (inactive) | > 100000 nM (inactive) | > 100000 nM (inactive) | > 100000 nM (inactive) | > 100000 nM (inactive) | > 100000 nM (inactive) | 59700 nM (inactive) | > 100000 nM (inactive) | > 100000 nM (inactive) | > 100000 nM (inactive) | > 100000 nM (inactive) | 40500 nM (inactive) | > 100000 nM (inactive) | > 100000 nM (inactive) | > 100000 nM (inactive) | > 100000 nM (inactive)
4 | CN(C)CCNc1ccc2ncn3c4ccc(O)cc4c(=O)c1c23 | 612 nM (active) | 315 nM (active) | 224 nM (active) | 87.1 nM (active) | 1180 nM (inactive) | 5740 nM (inactive) | 281 nM (active) | 920 nM (active) | 3040 nM (inactive) | 762 nM (active) | 409 nM (active) | 1630 nM (inactive) | 745 nM (active) | 735 nM (active) | 66.1 nM (active) | 404 nM (active) | 3440 nM (inactive) | 153 nM (active) | 214 nM (active) | 1090 nM (active)
5 | Cc1cccc2c(NCCCN(C)C)c3c([N+](=O)[O-])ccc(C)c3nc12 | 68.9 nM (active) | 88.7 nM (active) | 200 nM (active) | < 24.1 nM (active) | 439 nM (active) | 192 nM (active) | 65.9 nM (active) | 192 nM (active) | 109 nM (active) | 115 nM (active) | < 32.6 nM (active) | 132 nM (active) | < 10 nM (active) | 190 nM (active) | 101 nM (active) | 186 nM (active) | 144 nM (active) | 47 nM (active) | 147 nM (active) | 57.4 nM (active)
6 | Cn1cnc(C(N)=[Se])c1N | 2130 nM (inactive) | 4100 nM (inactive) | 3270 nM (inactive) | 183 nM (active) | 3740 nM (inactive) | 7240 nM (inactive) | 4190 nM (inactive) | 1290 nM (inactive) | 2030 nM (inactive) |  | 2190 nM (inactive) | 4440 nM (inactive) | 16400 nM (inactive) | 2940 nM (inactive) | 1710 nM (inactive) | 2200 nM (inactive) | 2000 nM (inactive) | 2460 nM (inactive) | 1350 nM (inactive) | 1330 nM (inactive)
7 | C[N+](C)(C)CC1CCCc2ccccc2C1=O (stereo not drawn) | 2440 nM (inactive) | > 42100 nM (inactive) | 4710 nM (inactive) | 22100 nM (inactive) | 37800 nM (inactive) | 13700 nM (inactive) | 2040 nM (inactive) | 29000 nM (inactive) | 7260 nM (inactive) | 2490 nM (inactive) | 1490 nM (inactive) | 4520 nM (inactive) | 14000 nM (inactive) | 265 nM (active) | 4060 nM (inactive) | 19700 nM (inactive) | 12200 nM (inactive) | 18800 nM (inactive) | 6710 nM (inactive) | 16600 nM (inactive)
